Test results reported in US6960589B2, “Benzimidazoles that are useful in treating sexual dysfunction” (Abbott Laboratories, priority 2001, dated 2005).
Several values for one entry are separate records, joined by “and”; a condition that tells them apart may be missing. Identical values can stand only once.

Columns and labels:
[1] = system: Wistar rats; assay: Rat penile erection model; type: in vivo; details: for Induction of penile erections in rats (result in words): subcutaneous administration, doses of 0.01 μmol/kg to 0.10 μmol/kg
Procedure: Wistar rats were used as a primary animal model to study penile erection in vivo. All experiments were carried out between 9:00 AM and 3:00 PM in a diffusely illuminated testing room with a red light. Animals were weighed and allowed to adapt to the testing room for 60 minutes before the beginning of experiments. Rats were placed individually in a transparent cage (20×30×30 cm) after drug injection.
(L)-Ascorbic acid in saline (1 mg/mL) was used as vehicle. Twelve animals were used per dose.

[2] = system: Male Fitch ferrets; set-up: species or system ferret; details: in vivo, sc
Procedure: Male Fitch ferrets (body weights 1.0-1.5 kg) were obtained from Marshall Farms. Ferrets were fasted overnight before experimentation. Apomorphine or a compound of the present invention was administrated subcutaneously; animals were placed individually in observation cages and the drug-induced emesis and signs of nausea were determined (by direct observation) for a period of 90 minutes following drug injection. Nausea was characterized by behaviors such as licking, gagging, backing, head burying, and intense abdominal grooming. Emesis was usually preceded by these behaviors and was characterized by rhythmic abdominal contractions which were associated with vomiting or retching movement.
Sterile saline was used as vehicle. Six animals were used per dose.

With `c1ccc(N2CCN(Cc3nc4ccccc4[nH]3)CC2)nc1` [2-[(4-pyridin-2-ylpiperazin-1-yl)methyl]-1H-benzimidazole] the “Induction of penile erections in rats (result in words)” value [1] was “induced statistically significant penile erections” and the “Induction of emesis in ferrets (result in words)” value [2] was “did not induce emesis”.
For `Oc1ccc(N2CCN(Cc3nc4ccccc4[nH]3)CC2)nc1` [6-[4-(1H-benzimidazol-2-ylmethyl)piperazin-1-yl]pyridin-3-ol], the melting point was 144 to 145 °C and the “Induction of penile erections in rats (result in words)” value [1] was “induced statistically significant penile erections”.
In the case of `CN1CCc2cccc3c2[C@H]1Cc1ccc(O)c(O)c1-3` [Apomorphine, (6aR) 5,6,6a,7-tetrahydro-6-methyl-4H-dibenzo[de,g]quinoline-10,11-diol, reference compound], the “Incidence (%) of penile erection (animals exhibiting 1 or more erections)” value ([1]; rats, dose 0.1 μmol/kg, observed 60 minutes after dosing) is reported as 83% and 93%.
In the case of `c1cnc(N2CCN(Cc3nc4ccccc4[nH]3)CC2)nc1` [Example 2, 2-[(4-pyrimidin-2-ylpiperazin-1-yl)methyl]-1H-benzimidazole], the melting point is reported as 198 to 200 °C.
`N#Cc1cccnc1N1CCN(Cc2nc3ccccc3[nH]2)CC1` [Example 4, 2-[4-(1H-benzimidazol-2-ylmethyl)piperazin-1-yl]nicotinonitrile] gave a melting point of 208 to 210 °C.
In the case of `c1ccc2[nH]c(CN3CCN(c4nccs4)CC3)nc2c1` [Example 7, 2-{[4-(1,3-thiazol-2-yl)piperazin-1-yl]methyl}-1H-benzimidazole], the melting point is reported as 203 to 205 °C.
`O=C(N1CCCC1)n1c(CN2CCN(c3ccccn3)CC2)nc2ccccc21` [Example 9, 2-[(4-pyridin-2-ylpiperazin-1-yl)methyl]-1-(pyrrolidin-1-ylcarbonyl)-1H-benzimidazole] showed a melting point of 120 to 121 °C.
Work on `CN(C)C(=O)n1c(CN2CCN(c3ccccn3)CC2)nc2ccccc21` [Example 10, N,N-dimethyl-2-[(4-pyridin-2-ylpiperazin-1-yl)methyl]-1H-benzimidazole-1-carboxamide] yielded a melting point of 174 to 176 °C.
Compound `N#Cc1ccccc1N1CCN(Cc2nc3ccccc3[nH]2)CC1` [Example 12, 2-[4-(1H-benzimidazol-2-ylmethyl)piperazin-1-yl]benzonitrile] has a melting point of 236 to 237 °C.
`Fc1ccccc1N1CCN(Cc2nc3ccccc3[nH]2)CC1` [Example 14, 2-{[4-(2-fluorophenyl)piperazin-1-yl]methyl}-1H-benzimidazole] showed a melting point of 262 to 264 °C.
For `Oc1ccc(N2CCN(Cc3nc4ccccc4[nH]3)CC2)cc1` [Example 17, 4-[4-(1H-benzimidazol-2-ylmethyl)piperazin-1-yl]phenol], the melting point was 206 to 209 °C.
For `CSc1ccccc1N1CCN(Cc2nc3ccccc3[nH]2)CC1` [Example 18, 2-({4-[2-(methylthio)phenyl]piperazin-1-yl}methyl)-1H-benzimidazole], the melting point was 214 to 216 °C.
`CCOc1ccccc1N1CCN(Cc2nc3ccccc3[nH]2)CC1` [Example 19, 2-{[4-(2-ethoxyphenyl)piperazin-1-yl]methyl}-1H-benzimidazole] showed a melting point of 95 to 100 °C.
With `Oc1ccccc1N1CCN(Cc2nc3ccccc3[nH]2)CC1` [Example 20, 2-[4-(1H-benzimidazol-2-ylmethyl)piperazin-1-yl]phenol] the melting point was 208 to 216 °C.
Work on `CC1CN(c2ccccn2)CCN1Cc1nc2ccccc2[nH]1` (centres unmarked) [Example 24, 2-[(2-methyl-4-pyridin-2-ylpiperazin-1-yl)methyl]-1H-benzimidazole] yielded a melting point of 207 to 209 °C.
Work on `C[C@H]1CN(c2ccccn2)CCN1Cc1nc2ccccc2[nH]1` [Example 25, 2-{[(2S)-2-methyl-4-pyridin-2-ylpiperazin-1-yl]methyl}-1H-benzimidazole] yielded a melting point of 149 to 151 °C.
Compound `C[C@@H]1CN(c2ccccn2)CCN1Cc1nc2ccccc2[nH]1` [Example 26, 2-{[(2R)-2-methyl-4-pyridin-2-ylpiperazin-1-yl]methyl}-1H-benzimidazole] has a melting point of 151 to 153 °C.
For `Fc1cccnc1N1CCN(Cc2nc3ccccc3[nH]2)CC1` [Example 28, 2-{[4-(3-fluoropyridin-2-yl)piperazin-1-yl]methyl}-1H-benzimidazole], the melting point was 210 to 212 °C.
